We go through two compounds from ChEMBL document CHEMBL1138408, “Molecular dynamics simulation of the P2Y14 receptor. Ligand docking and identification of a putative binding site of the distal hexose moiety” (Bioorg Med Chem Lett, 2007).

The assay deals with T1, P2Y purinoceptor 14 (Homo sapiens, UniProt Q15391).
T1 sequence (Q15391 whole entry): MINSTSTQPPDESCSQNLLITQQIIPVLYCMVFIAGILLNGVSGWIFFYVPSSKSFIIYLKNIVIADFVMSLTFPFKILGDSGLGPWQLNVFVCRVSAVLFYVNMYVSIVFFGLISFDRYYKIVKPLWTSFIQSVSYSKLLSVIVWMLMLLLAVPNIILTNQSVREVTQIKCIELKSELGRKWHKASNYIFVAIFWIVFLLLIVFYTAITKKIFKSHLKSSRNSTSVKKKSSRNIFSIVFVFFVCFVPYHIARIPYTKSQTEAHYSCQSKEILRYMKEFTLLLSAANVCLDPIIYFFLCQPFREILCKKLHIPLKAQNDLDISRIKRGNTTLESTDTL
Kind of assay: Agonist activity at human P2Y14 receptor expressed in COS7 cells assessed as stimulation of PLC. The format is functional, cell-based, COS-7.

`CC(=O)N[C@@H]1[C@H](OP(=O)(O)OP(=O)(O)OC[C@H]2O[C@@H](n3ccc(=O)[nH]c3=O)[C@H](O)[C@@H]2O)O[C@@H](CO)[C@H](O)[C@H]1O`: under “cos-7”, the EC50 amounted to 4.38 µM. In the case of `O=C(O)[C@@H]1O[C@@H](OP(=O)(O)OP(=O)(O)OC[C@H]2O[C@@H](n3ccc(=O)[nH]c3=O)[C@H](O)[C@@H]2O)[C@@H](O)[C@H](O)[C@H]1O`, the EC50 turned out to be 0.37 µM.
